According to US20250270190A1, “KIT INHIBITORS” (BLUEPRINT MEDICINES CORPORATION, priority 2022, published 2025):

Target: T1, c-kit autophosphorylation (Phospho c-Kit Tyr721) in HMC 1.1 (exon 11/13) cells, V654A (Homo sapiens, UniProt P10721, V560G/V654A)
T1 construct: endogenous in cells; host or cells: HMC 1.1 (exon 11/13) cells
Experiment: pKIT Meso Scale Discovery (MSD) assay, inhibition of autophosphorylation of KIT, HMC1.1_V654A
Type: cell-based
Conditions: Table 1, cell line not named for Table 1, b1056 names pKIT HMC1.1_V654A, read-out: Code (IC50 for inhibition of autophosphorylation of KIT, pKIT MSD assay)
Procedure, shortened: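 HMC1.1 cells were serum-starved for 4 h in serum-free, iron-free, phenol red-free IMDM, then treated with compound in dose-response for 90 min at 37 °C. Staurosporine and DMSO served as controls. Lysates were analysed by MSD electrochemiluminescence immunoassay for phospho-c-Kit Tyr721, and % inhibition of autophosphorylation was derived.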

T1 sequence (P10721 26-976 V560G/V654A): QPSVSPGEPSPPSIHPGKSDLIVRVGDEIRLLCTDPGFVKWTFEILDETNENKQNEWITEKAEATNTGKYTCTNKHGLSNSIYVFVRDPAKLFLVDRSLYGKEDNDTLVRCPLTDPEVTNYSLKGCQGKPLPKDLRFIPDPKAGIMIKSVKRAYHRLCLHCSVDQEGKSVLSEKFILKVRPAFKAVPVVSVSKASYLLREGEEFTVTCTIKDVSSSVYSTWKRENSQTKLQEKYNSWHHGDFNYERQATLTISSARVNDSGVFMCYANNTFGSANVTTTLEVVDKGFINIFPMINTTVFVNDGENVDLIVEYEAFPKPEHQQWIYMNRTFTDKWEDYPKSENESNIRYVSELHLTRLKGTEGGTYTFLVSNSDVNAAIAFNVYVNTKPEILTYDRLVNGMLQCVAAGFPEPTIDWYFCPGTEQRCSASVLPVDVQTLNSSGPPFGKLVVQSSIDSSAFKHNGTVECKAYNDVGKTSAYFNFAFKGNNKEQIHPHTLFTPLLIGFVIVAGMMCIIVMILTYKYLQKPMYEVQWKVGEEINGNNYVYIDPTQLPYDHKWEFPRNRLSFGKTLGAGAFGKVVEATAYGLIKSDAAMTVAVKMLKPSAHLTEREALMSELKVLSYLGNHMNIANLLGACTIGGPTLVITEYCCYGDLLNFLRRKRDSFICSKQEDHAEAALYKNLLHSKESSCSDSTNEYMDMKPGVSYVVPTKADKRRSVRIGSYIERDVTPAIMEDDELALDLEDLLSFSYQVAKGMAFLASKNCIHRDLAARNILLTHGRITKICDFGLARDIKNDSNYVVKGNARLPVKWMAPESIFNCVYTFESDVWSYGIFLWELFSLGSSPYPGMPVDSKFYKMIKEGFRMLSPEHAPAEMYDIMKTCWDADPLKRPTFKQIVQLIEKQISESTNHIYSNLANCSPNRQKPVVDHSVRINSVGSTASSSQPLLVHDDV

| IC50 | Structure (SMILES) |
| --- | --- |
| 10 to 40 nM | CNc1cc(Nc2cc(N)nc(C(F)F)n2)ncc1C(=O)NC12CC(CO)(C1)C2 [Compound 121, 6-((6-amino-2-(difluoromethyl)pyrimidin-4-yl)amino)-N-(3-(hydroxymethyl)bicyclo[1.1.1]pentan-1-yl)-4-(methylamino)nicotinamide] |
| < 10 nM | COc1cc(Nc2cc(N)nc(C(F)F)n2)ncc1-c1cnn(CCNCC(F)(F)F)c1 [Compound 197, 2-(difluoromethyl)-N4-(4-methoxy-5-(1-(2-((2,2,2-trifluoroethyl)amino)ethyl)-1H-pyrazol-4-yl)pyridin-2-yl)pyrimidine-4,6-diamine] |
| < 10 nM | CCNC(=O)c1cnc(Nc2cc(N)nc(C(F)F)n2)cc1N[C@H](C)CF [Compound 72, (R)-6-((6-amino-2-(difluoromethyl)pyrimidin-4-yl)amino)-N-ethyl-4-((1-fluoropropan-2-yl)amino)nicotinamide] |
| < 10 nM | CNC(=O)c1cnc(Nc2cc(N)nc(C(F)F)n2)cc1NCC(F)(F)F [Compound 82, 6-((6-amino-2-(difluoromethyl)pyrimidin-4-yl)amino)-N-methyl-4-((2,2,2-trifluoroethyl)amino)nicotinamide] |
| < 10 nM | C[C@@H](Oc1cc(Nc2cc(N)nc(C(F)F)n2)ncc1-c1cnn(C)c1)C(F)(F)F [Compound 163, (R)-2-(difluoromethyl)-N4-(5-(1-methyl-1H-pyrazol-4-yl)-4-((1,1,1-trifluoropropan-2-yl)oxy)pyridin-2-yl)pyrimidine-4,6-diamine] |
| 10 to 40 nM | Cn1cc(-c2cnc(Nc3cc(N)nc(C(F)F)n3)cc2O[C@H]2C[C@@H](O)C2)cn1 [Compound 107, (1s,3s)-3-((2-((6-amino-2-(difluoromethyl)pyrimidin-4-yl)amino)-5-(1-methyl-1H-pyrazol-4-yl)pyridin-4-yl)oxy)cyclobutan-1-ol] |
| > 40 nM | COc1cc(Nc2cc(N)nc(C(F)F)n2)ncc1-c1cnn(C[C@H]2CCN2)c1 (single isomer, unassigned) [Compound 101, (R)-N4-(5-(1-(azetidin-2-ylmethyl)-1H-pyrazol-4-yl)-4-methoxypyridin-2-yl)-2-(difluoromethyl)pyrimidine-4,6-diamine or (S)-N4-(5-(1-(azetidin-2-ylmethyl)-1H-pyrazol-4-yl)-4-methoxypyridin-2-yl)-2-(difluoromethyl)pyrimidine-4,6-diamine] |
| < 10 nM | COc1cc(Nc2cc(N)nc(C(F)F)n2)ncc1-c1cnn(C2COC2)c1 [Compound 78, 2-(difluoromethyl)-N4-(4-methoxy-5-(1-(oxetan-3-yl)-1H-pyrazol-4-yl)pyridin-2-yl)pyrimidine-4,6-diamine] |
| < 10 nM | CNC(=O)c1cnc(Nc2cc(N)nc(C(F)F)n2)cc1NC(CF)CF [Compound 75, 6-((6-amino-2-(difluoromethyl)pyrimidin-4-yl)amino)-4-((1,3-difluoropropan-2-yl)amino)-N-methylnicotinamide] |
| < 10 nM | CCOc1cc(Nc2cc(N)nc(C(F)F)n2)ncc1-c1cnn(C2CN(C)C2)c1 [Compound 141, 2-(difluoromethyl)-N4-(4-ethoxy-5-(1-(1-methylazetidin-3-yl)-1H-pyrazol-4-yl)pyridin-2-yl)pyrimidine-4,6-diamine] |
| 10 to 40 nM | COc1cc(Nc2cc(N)nc(C(F)F)n2)ncc1-c1cnn([C@H]2CCNC2)c1 (single isomer, unassigned) [Compound 99, (S)-2-(difluoromethyl)-N4-(4-methoxy-5-(1-(pyrrolidin-3-yl)-1H-pyrazol-4-yl)pyridin-2-yl)pyrimidine-4,6-diamine or (R)-2-(difluoromethyl)-N4-(4-methoxy-5-(1-(pyrrolidin-3-yl)-1H-pyrazol-4-yl)pyridin-2-yl)pyrimidine-4,6-diamine] |
| < 10 nM | Cn1cc(-c2cnc(Nc3cc(N)nc(C(F)F)n3)cc2OCC(F)(F)F)cn1 [Compound 132, 2-(difluoromethyl)-N4-(5-(1-methyl-1H-pyrazol-4-yl)-4-(2,2,2-trifluoroethoxy)pyridin-2-yl)pyrimidine-4,6-diamine] |
| < 10 nM | Nc1cc(Nc2cc(OC3CC3)c(-c3cnn([C@H]4CCNC4)c3)cn2)nc(C(F)F)n1 (single isomer, unassigned) [Compound 159, (S)-N4-(4-cyclopropoxy-5-(1-(pyrrolidin-3-yl)-1H-pyrazol-4-yl)pyridin-2-yl)-2-(difluoromethyl)pyrimidine-4,6-diamine or (R)-N4-(4-cyclopropoxy-5-(1-(pyrrolidin-3-yl)-1H-pyrazol-4-yl)pyridin-2-yl)-2-(difluoromethyl)pyrimidine-4,6-diamine] |
| < 10 nM | COCCn1cc(-c2cnc(Nc3cc(N)nc(C(F)F)n3)cc2OC2CC2)cn1 [Compound 146, N4-(4-cyclopropoxy-5-(1-(2-methoxyethyl)-1H-pyrazol-4-yl)pyridin-2-yl)-2-(difluoromethyl)pyrimidine-4,6-diamine] |
| 10 to 40 nM | Cn1cc(-c2cnc(Nc3cc(N)nc(C(F)F)n3)cc2OCCCO)cn1 [Compound 83, 3-((2-((6-amino-2-(difluoromethyl)pyrimidin-4-yl)amino)-5-(1-methyl-1H-pyrazol-4-yl)pyridin-4-yl)oxy)propan-1-ol] |
| < 10 nM | CC(C)Nc1cc(Nc2cc(N)nc(C(F)F)n2)ncc1C(=O)NCc1ccccn1 [Compound 158, 6-((6-amino-2-(difluoromethyl)pyrimidin-4-yl)amino)-4-(isopropylamino)-N-(pyridin-2-ylmethyl)nicotinamide] |
| 10 to 40 nM | CC(C)Nc1cc(Nc2cc(N)nc(C(F)F)n2)ncc1C(=O)NCC1CC1 [Compound 86, 6-((6-amino-2-(difluoromethyl)pyrimidin-4-yl)amino)-N-(cyclopropylmethyl)-4-(isopropylamino)nicotinamide] |
| < 10 nM | C[C@H](CF)Oc1cc(Nc2cc(N)nc(C(F)F)n2)ncc1-c1cnn(C)c1 (single isomer, unassigned) [Compound 88, (R)-2-(difluoromethyl)-N4-(4-((1-fluoropropan-2-yl)oxy)-5-(1-methyl-1H-pyrazol-4-yl)pyridin-2-yl)pyrimidine-4,6-diamine or (S)-2-(difluoromethyl)-N4-(4-((1-fluoropropan-2-yl)oxy)-5-(1-methyl-1H-pyrazol-4-yl)pyridin-2-yl)pyrimidine-4,6-diamine] |

Further lines, the compound ahead of its results:

| Structure (SMILES) | IC50 |
| --- | --- |
| CNC(=O)c1cnc(Nc2cc(N)nc(CF)n2)cc1NC(C)C [Compound 9, 6-((6-amino-2-(fluoromethyl)pyrimidin-4-yl)amino)-4-(isopropylamino)-N-methylnicotinamide] | < 10 nM |
| CCC(C)CNc1cc(Nc2cc(N)nc(C(F)F)n2)ncc1C(=O)NC (stereo not drawn) [Compound 65, 6-((6-amino-2-(difluoromethyl)pyrimidin-4-yl)amino)-N-methyl-4-((2-methylbutyl)amino)nicotinamide] | 10 to 40 nM |
| CNC(=O)c1cnc(Nc2cc(N)nc(CF)n2)cc1N[C@@H]1CCOC1 [Compound 35, (R)-6-((6-amino-2-(fluoromethyl)pyrimidin-4-yl)amino)-N-methyl-4-((tetrahydrofuran-3-yl)amino)nicotinamide] | > 40 nM |
| N#CCNC(=O)c1cnc(Nc2cc(N)nc(C(F)F)n2)cc1NC1CC1 [Compound 54, 6-((6-amino-2-(difluoromethyl)pyrimidin-4-yl)amino)-N-(cyanomethyl)-4-(cyclopropylamino)nicotinamide] | 10 to 40 nM |
| [2H]C([2H])([2H])Nc1cc(Nc2cc(N)nc(C(F)F)n2)ncc1C(=O)NC [Compound 5, 6-((6-amino-2-(difluoromethyl)pyrimidin-4-yl)amino)-N-methyl-4-((methyl-d3)amino)nicotinamide] | < 10 nM |
| CCNC(=O)c1cnc(Nc2cc(N)nc(C(F)F)n2)cc1NCC [Compound 30, 6-((6-amino-2-(difluoromethyl)pyrimidin-4-yl)amino)-N-ethyl-4-(ethylamino)nicotinamide] | 10 to 40 nM |
| CNC(=O)c1cnc(Nc2cc(N)nc(CF)n2)cc1NC1COC1 [Compound 19, 6-((6-amino-2-(fluoromethyl)pyrimidin-4-yl)amino)-N-methyl-4-(oxetan-3-ylamino)nicotinamide] | > 40 nM |
| CC(C)NC(=O)c1cnc(Nc2cc(N)nc(C(F)F)n2)cc1NC1CC1 [Compound 63, 6-((6-amino-2-(difluoromethyl)pyrimidin-4-yl)amino)-4-(cyclopropylamino)-N-isopropylnicotinamide] | < 10 nM |
| Cn1cc(-c2cnc(Nc3cc(N)nc(C(F)F)n3)cc2OC2CC2)cn1 [Compound 53, N4-(4-cyclopropoxy-5-(1-methyl-1H-pyrazol-4-yl)pyridin-2-yl)-2-(difluoromethyl)pyrimidine-4,6-diamine] | < 10 nM |
| CCCNC(=O)c1cnc(Nc2cc(N)nc(C(F)F)n2)cc1NC(C)C [Compound 67, 6-((6-amino-2-(difluoromethyl)pyrimidin-4-yl)amino)-4-(isopropylamino)-N-propylnicotinamide] | < 10 nM |
| CNC(=O)c1cnc(Nc2cc(N)nc(CF)n2)cc1NC1CC1 [Compound 8, 6-((6-amino-2-(fluoromethyl)pyrimidin-4-yl)amino)-4-(cyclopropylamino)-N-methylnicotinamide] | < 10 nM |
| CNC(=O)c1cnc(Nc2cc(N)nc([C@H](C)F)n2)cc1NC [Compound 3, (S)-6-((6-amino-2-(1-fluoroethyl)pyrimidin-4-yl)amino)-N-methyl-4-(methylamino)nicotinamide] | 10 to 40 nM |
